Publication PMC11363342 (ACS Central Science, 2024)

Tests used:
SARS-CoV-2 [1] = assay: Viral load reduction assay in Calu-3 cells, infectious virus titer by plaque assay; type: cell-based
Method: (§1) Cells were pretreated with 11 and infected with SARS-CoV-2 at a multiplicity of infection (MOI) of 1. At 16 h postinfection (hpi) supernatant was harvested to quantify the infectious virus titer by plaque assay and extracellular viral RNA copies by RT-qPCR. […] This is in line with the expected mechanism of action of the compound that involves viral (structural) protein maturation, likely resulting in reduced infectivity of progeny virus. We then calculated the specific infectivity (defined as the number of infectious particles per viral RNA copy) of treated and untreated samples for the data in Figure 3A,B (Figure 3C). […] None of the treatments caused noticeable cytotoxicity in uninfected treated cells (Figure 3B). Similarly, treatment of infected Calu-3 lung epithelial cells with 11 reduced infectious progeny virus titers by ∼10-fold, while no reduction in extracellular viral RNA copies was observed (Figure S3).
(§2) Figure S2: Cytopathic effect reduction assays on Vero E6 monkey kidney cells and H1299/ACE2 human lung epithelial cells. […]
(§3) plaque assay and RT-qPCR, respectively. Uninfected compound-treated cells were assessed by MTS assay in parallel to measure cytotoxicity of the compounds. n=3 independent experiments. […]

SARS-CoV-2 [2] = assay: Viral load reduction assay in Calu-3 cells, extracellular viral RNA copies by RT-qPCR; type: cell-based; settings: Calu-3, MOI 1, 16 hpi
Method: as §1, §2, §3

O=S1(=O)O[C@@H]2[C@H](O)[C@@H](O)[C@H](O)[C@@H](CO)[C@@H]2O1 [Compound 11, 1,6-epi-cyclophellitol cyclosulfate]
reduction of infectious virus titers (SARS-CoV-2 [1]; Calu-3, 0.5–1.6 μM): up to 2 logs
reduction of infectious progeny virus titers (SARS-CoV-2 [1]; Calu-3, MOI 1, 16 hpi): ~10 fold
extracellular viral RNA copies (in words) (SARS-CoV-2 [2]): no reduction
